Measurements from patent US20050064462A1, “Methods, compositions, and kits for predicting the effect of compounds on hot flash symptoms” (priority 2003, published 2005).
Entries after “also recorded” stand apart in the source; their conditions may differ.

What was measured:
Type II Hexokinase = test: Differential gene expression in a cell following contact with reference compounds: Type II Hexokinase; type: cell-based; settings: accession D26393; cell expressing estrogen receptor or estrogen related receptor, after contact with compound
Text: (§1) The expression of any gene known by one of skill in the art to be associated with hot flash symptoms, without limitation, can be assessed in the methods of the invention. The present invention provides numerous such genes as described in detail, below. Further, additional genes that are associated with hot flash symptoms can readily be identified by one of skill in the art according to the disclosure of the present invention. For example, a cell that expresses the estrogen receptor or estrogen related receptor can be contacted with a reference compound known to affect hot flash symptoms. The overall expression of genes in the cell following contact with the reference compound can be compared to the overall expression of genes in a similar cell that has not been contacted with the reference compound.
(§2) The expression of such genes to identify genes that are differentially expressed following contact with a compound with a known effect on hot flash symptoms can be monitored by any convenient method known by one of skill in the art. Most advantageously, the expression of many genes, e.g., thousands of genes, is monitored at once using a high throughput method for assessing expression of genes in the presence and absence of compounds known to affect hot flash symptoms. […]

[1] = system: Protein Tyrosine Phosphatase BAD2; test: Differential gene expression in a cell following contact with reference compounds: BAD2; type: cell-based; settings: accession U02553; cell expressing estrogen receptor or estrogen related receptor, after contact with compound
Text: as §1, §2

Annexin 1 = test: Differential gene expression in a cell following contact with reference compounds: Annexin 1; type: cell-based; settings: accession AI171962; cell expressing estrogen receptor or estrogen related receptor, after contact with compound
Text: as §1, §2

N27 = test: Differential gene expression in a cell following contact with reference compounds: N27; type: cell-based; settings: accession AI014169; cell expressing estrogen receptor or estrogen related receptor, after contact with compound
Text: as §1, §2

[2] = system: HMG-box containing protein 1; test: Differential gene expression in a cell following contact with reference compounds: HBP1; type: cell-based; settings: accession U09551; cell expressing estrogen receptor or estrogen related receptor, after contact with compound
Text: as §1, §2

D-binding protein = test: Differential gene expression in a cell following contact with reference compounds: D-binding protein; type: cell-based; settings: accession J03179; cell expressing estrogen receptor or estrogen related receptor, after contact with compound
Text: as §1, §2

Protein Kinase C type I = test: Differential gene expression in a cell following contact with reference compounds: Protein Kinase C type I; type: cell-based; settings: accession M13707; cell expressing estrogen receptor or estrogen related receptor, after contact with compound
Text: as §1, §2

hot flash symptoms = settings: cited from earlier work
[3] = system: FE65 adaptor protein interacting with beta-amyloid precursor protein intracellular domain; test: Differential gene expression in a cell following contact with reference compounds: FE65; type: cell-based; settings: accession X60469; cell expressing estrogen receptor or estrogen related receptor, after contact with compound
Text: as §1, §2

Activin Beta E = test: Differential gene expression in a cell following contact with reference compounds: Activin Beta E; type: cell-based; settings: accession AF089825; cell expressing estrogen receptor or estrogen related receptor, after contact with compound
Text: as §1, §2

[4] = system: Multi Drug Resistance Gene; test: Differential gene expression in a cell following contact with reference compounds: Multi Drug Resistance Gene; type: cell-based; settings: accession M81855; cell expressing estrogen receptor or estrogen related receptor, after contact with compound
Text: as §1, §2

Parvalbumin = test: Differential gene expression in a cell following contact with reference compounds: Parvalbumin; type: cell-based; settings: accession AF022935; cell expressing estrogen receptor or estrogen related receptor, after contact with compound
Text: as §1, §2

Prolactin = test: Differential gene expression in a cell following contact with reference compounds: Prolactin; type: cell-based; settings: accession AI175539; cell expressing estrogen receptor or estrogen related receptor, after contact with compound
Text: as §1, §2

[5] = system: Argininosuccinate Synthetase; test: Differential gene expression in a cell following contact with reference compounds: Argininosuccinate Synthetase; type: cell-based; settings: accession X12459; cell expressing estrogen receptor or estrogen related receptor, after contact with compound
Text: as §1, §2

[6] = system: Ribonucleoside Reductase Nuclear Receptor; test: Differential gene expression in a cell following contact with reference compounds: RNR-1; type: cell-based; settings: accession L08595; cell expressing estrogen receptor or estrogen related receptor, after contact with compound
Text: as §1, §2

Interleukin-18 = test: Differential gene expression in a cell following contact with reference compounds: Interleukin-18; type: cell-based; settings: accession AJ222813; cell expressing estrogen receptor or estrogen related receptor, after contact with compound
Text: as §1, §2

ARL gene 4 = test: Differential gene expression in a cell following contact with reference compounds: ARL gene 4; type: cell-based; settings: accession X77235; cell expressing estrogen receptor or estrogen related receptor, after contact with compound
Text: as §1, §2

Calpain = test: Differential gene expression in a cell following contact with reference compounds: Calpain; type: cell-based; settings: accession D14478; cell expressing estrogen receptor or estrogen related receptor, after contact with compound
Text: as §1, §2

EST196325 = test: Differential gene expression in a cell following contact with reference compounds: EST196325; type: cell-based; settings: accession AA892522; cell expressing estrogen receptor or estrogen related receptor, after contact with compound
Text: as §1, §2

[7] = system: Interleukin-1 β-converting enzyme-related protease CPP32; test: Differential gene expression in a cell following contact with reference compounds: CPP32; type: cell-based; settings: accession U84410; cell expressing estrogen receptor or estrogen related receptor, after contact with compound
Text: as §1, §2

EST208064 = test: Differential gene expression in a cell following contact with reference compounds: EST208064; type: cell-based; settings: accession AI013389; cell expressing estrogen receptor or estrogen related receptor, after contact with compound
Text: as §1, §2

2-alpha-1 globin = test: Differential gene expression in a cell following contact with reference compounds: 2-alpha-1 globin; type: cell-based; settings: accession X56325; cell expressing estrogen receptor or estrogen related receptor, after contact with compound
Text: as §1, §2

Compound: 4-hydroxy tamoxifen
- Effect on Expression of Type II Hexokinase (HKII) (Type II Hexokinase): downregulation
- Effect on Expression of Protein Tyrosine Phosphatase BAD2 [1]: downregulation
- Effect on Expression of Annexin 1 (EST 21795) (Annexin 1): Upregulated
- Effect on Expression of N27 (EST 207724) (N27): Upregulated
- Effect on Expression of HMG-box containing protein 1 (HBP1) [2]: Upregulated
- Effect on Expression of D-binding protein (D-binding protein): Upregulated
- Effect on Expression of Protein Kinase C type I (PKC type I) (Protein Kinase C type I): Upregulated
- known effect on the incidence of hot flash symptoms (hot flash symptoms; when administered to a subject): increasing effect on hot flash symptoms; also recorded: increase the incidence of hot flash symptoms

Compound: O=C(c1ccc(OCCN2CCCCC2)cc1)c1c(-c2ccc(O)cc2)sc2cc(O)ccc12 [Raloxifene, raloxifene]
- Effect on Expression of Annexin 1 (EST 21795) (Annexin 1): Upregulated
- Effect on Expression of N27 (EST 207724) (N27): Upregulated
- Effect on Expression of HMG-box containing protein 1 (HBP1) [2]: Upregulated
- Effect on Expression of D-binding protein (D-binding protein): Upregulated
- Effect on Expression of FE65 adaptor protein interacting with beta-amyloid precursor protein intracellular domain (FE65) [3]: Upregulated
- Effect on Expression of Protein Kinase C type I (PKC type I) (Protein Kinase C type I): Upregulated
- subjects experiencing hot flash symptoms of sufficient severity to discontinue therapy (hot flash symptoms; administered in the treatment of osteoporosis): approximately 11%

Compound: C#C[C@]1(O)CC[C@H]2[C@@H]3[C@H](C)CC4=C(CCC(=O)C4)[C@H]3CC[C@@]21C [Tibolone, tibolone]
- Effect on Expression of Activin Beta E (Activin Beta E): Upregulated
- Effect on Expression of Type II Hexokinase (HKII) (Type II Hexokinase): Upregulated
- Effect on Expression of Multi Drug Resistance Gene (MDR) [4]: Upregulated
- Effect on Expression of Parvalbumin (Parvalbumin): Upregulated
- Effect on Expression of Protein Tyrosine Phosphatase BAD2 [1]: Upregulated
- Effect on Expression of Prolactin (Prolactin): Upregulated
- Effect on Expression of Argininosuccinate Synthetase [5]: Upregulated
- Effect on Expression of Ribonucleoside Reductase Nuclear Receptor (RNR-1) [6]: Upregulated
- Effect on Expression of Interleukin-18 (IL-18) (Interleukin-18): Upregulated
- Effect on Expression of ARL gene 4 (ARL gene 4): Upregulated
- Effect on Expression of Calpain (Calpain): Upregulated
- Effect on Expression of EST196325 (EST196325): Upregulated
- Effect on Expression of Interleukin-1 β-converting enzyme-related protease CPP32 [7]: Upregulated
- Effect on Expression of EST208064 (EST208064): Upregulated
- Effect on Expression of 2-alpha-1 globin (2-alpha-1 globin): Upregulated
